Experimental data as given in US10245245B2, “Compositions and methods for neuroprotection and treatment of neurodegeneration” (Vireo Systems, Inc., priority 2015, dated 2019).

Columns and labels:
[1] = tested on: confirmed carriers of the HD gene mutation; assay: Creatine HCl in patients having HD gene mutation (clinical neurological assessment, MRI); assay type: in vivo, human; details: 10 to 12 grams/day
Description: Patients were confirmed carriers of the HD gene mutation at early stage 1 progression. Each patient was instructed to take 10 to 12 grams/day of creatine HCl. Neurological progression of disease was monitored quarterly as were full blood chemistry profiles. Assessment of neurological progression using magnetic resonance imaging (MRI) was also performed at a minimum of once a year.

Relative bioavailability = details: in vivo
[2] = cited from earlier work

| SMILES | progression of disease (clinical neurological assessments or MRI) ([1]; 3.5 years, early stage 1 carriers) | onset of the disease / symptoms ([1]; over the 3.5 year time period) | relative bioavailability, greater than creatine monohydrate (Relative bioavailability) | patients unable to tolerate the maximum dose ([2]; 30 g daily) | those on placebo unable to tolerate the maximal dose when they switched to it ([2]; maximal dose 30 g daily) [%] |
| --- | --- | --- | --- | --- | --- |
| CN(CC(=O)O)C(=N)N.Cl [creatine HCl, creatine hydrochloride] | no progression of disease | no symptoms | at least 50% |  |  |
| CN(CC(=O)O)C(=N)N.O [creatine monohydrate] |  |  |  | about one-third | 13 |
